Experimental data as given in patent US12528826B2, “[1,4]oxazepino[2,3-c]quinolinone derivatives as BCL6 inhibitors” (Cancer Research Technology Limited, priority 2019, dated 2026).

molecular target: T1, Trx-6×His-BCL6 (human BCL6 BTB domain covering amino-acid sequence 5-129) (Homo sapiens, UniProt P41182); test: HTRF assay (BCL6 / BCOR peptide); assay type: binding; details: 1 nM Trx-6×His-BCL6, 300 nM BCOR-AF633 peptide, 2 hours incubation at room temperature
T1 construct: made in house
Experimental: After 2 hours incubation at room temperature the plate was read on a Pherastar FSX (BMG Labtech) plate reader equipped with 337 nm laser excitation filter, a first emission filter at 620 nm and a second emission filter at 665 nm. The % inhibition at each concentration was calculated by normalising FRET ratio to the appropriate high (DMSO with all reagents) and low (DMSO without BCL6) controls.

Structure (SMILES)	HTRF avg pIC50
Cn1c(=O)c2c(c3cc(Nc4ccnc(Cl)c4Cl)ccc31)N[C@@H](C1CC1)C(F)(F)CO2 [Example 4c, (S)-2-cyclopropyl-10-((2,3-dichloropyridin-4-yl)amino)-3,3-difluoro-7-methyl-1,2,3,4-tetrahydro-[1,4]oxazepino[2,3-c]quinolin-6(7H)-one]	7.86
Cn1c(=O)c2c(c3cc(Nc4ccnc(Cl)c4F)ccc31)N[C@@H](C1CC1)C(F)(F)CO2 [Example 4d, (S)-10-((2-chloro-3-fluoropyridin-4-yl)amino)-2-cyclopropyl-3,3-difluoro-7-methyl-1,2,3,4-tetrahydro-[1,4]oxazepino[2,3-c]quinolin-6(7H)-one]	7.78
Cc1nccc(Nc2ccc3c(c2)c2c(c(=O)n3C)OCC(F)(F)[C@H](C3CC3)N2)c1Cl [Example 4e, (S)-10-((3-chloro-2-methylpyridin-4-yl)amino)-2-cyclopropyl-3,3-difluoro-7-methyl-1,2,3,4-tetrahydro-[1,4]oxazepino[2,3-c]quinolin-6(7H)-one]	7.73
Cn1c(=O)c2c(c3cc(Nc4nc(N5C[C@@H](O)C[C@@H](F)C5)ncc4Cl)ccc31)N[C@@H](C1CC1)C(F)(F)CO2 [Example 9a, (S)-10-((5-chloro-2-((3S,5R)-3-fluoro-5-hydroxypiperidin-1-yl)pyrimidin-4-yl)amino)-2-cyclopropyl-3,3-difluoro-7-methyl-1,2,3,4-tetrahydro-[1,4]oxazepino[2,3-c]quinolin-6(7H)-one: (S)-10-((5-chloro-2-((3R,5S)-3-fluoro-5-hydroxypiperidin-1-yl)pyrimidin-4-yl)amino)-2-cyclopropyl-3,3-difluoro-7-methyl-1,2,3,4-tetrahydro-[1,4]oxazepino[2,3-c]quinolin-6(7H)-one (1:1)]	8.60

same assay, conditions: 1 nM Trx-6×His-BCL6, 300 nM BCOR-AF633 peptide, 2 hours incubation at room temperature; read-out: HTRF avg pIC50 (converted)

Structure (SMILES)	IC50
Cn1c(=O)c2c(c3cc(Nc4nc(N5CC(C)(F)C5)ncc4Cl)ccc31)N[C@@H](C1CC1)C(F)(F)CO2 [Example 1m, (S)-10-((5-chloro-2-(3-fluoro-3-methylazetidin-1-yl)pyrimidin-4-yl)amino)-2-cyclopropyl-3,3-difluoro-7-methyl-1,2,3,4-tetrahydro-[1,4]oxazepino[2,3-c]quinolin-6(7H)-one]	9.33 nM
Cn1c(=O)c2c(c3cc(Nc4nc(N5CC(C)(O)C5)ncc4Cl)ccc31)N[C@@H](C1CC1)C(F)(F)CO2 [Example 1n, (S)-10-((5-chloro-2-(3-hydroxy-3-methylazetidin-1-yl)pyrimidin-4-yl)amino)-2-cyclopropyl-3,3-difluoro-7-methyl-1,2,3,4-tetrahydro-[1,4]oxazepino[2,3-c]quinolin-6(7H)-one]	13.8 nM
C[C@H]1C[C@@H](O)CN(c2ncc(F)c(Nc3ccc4c(c3)c3c(c(=O)n4C)OCC(F)(F)[C@H](C4CC4)N3)n2)C1 [Example 2a, (S)-2-cyclopropyl-3,3-difluoro-10-((5-fluoro-2-((3R,5S)-3-hydroxy-5-methylpiperidin-1-yl)pyrimidin-4-yl)amino)-7-methyl-1,2,3,4-tetrahydro-[1,4]oxazepino[2,3-c]quinolin-6(7H)-one]	2.4 nM
Cn1c(=O)c2c(c3cc(Nc4nc(N5CCC(F)(F)CC5)ncc4F)ccc31)N[C@@H](C1CC1)C(F)(F)CO2 [Example 2b, (S)-2-cyclopropyl-10-((2-(4,4-difluoropiperidin-1-yl)-5-fluoropyrimidin-4-yl)amino)-3,3-difluoro-7-methyl-1,2,3,4-tetrahydro-[1,4]oxazepino[2,3-c]quinolin-6(7H)-one]	22.4 nM
[2H]C([2H])([2H])n1c(=O)c2c(c3cc(Nc4nc(N5C6CCC5COC6)ncc4Cl)cnc31)N[C@@H](C1CC1)C(F)(F)CO2 [Example 3a, (S)-10-((2-(3-oxa-8-azabicyclo[3.2.1]octan-8-yl)-5-chloropyrimidin-4-yl)amino)-2-cyclopropyl-3,3-difluoro-7-(methyl-d3)-1,2,3,4-tetrahydro-[1,4]oxazepino[2,3-c][1,8]naphthyridin-6(7H)-one]	1.62 nM
Cc1noc(-c2cc(Nc3ccc4c(c3)c3c(c(=O)n4C)OCC(F)(F)[C@H](C4CC4)N3)c(Cl)cn2)n1 [Example 4a, (S)-10-((5-chloro-2-(3-methyl-1,2,4-oxadiazol-5-yl)pyridin-4-yl)amino)-2-cyclopropyl-3,3-difluoro-7-methyl-1,2,3,4-tetrahydro-[1,4]oxazepino[2,3-c]quinolin-6(7H)-one]	3.47 nM
Cn1c(=O)c2c(c3cc(Nc4nc(N5[C@@H]6COC[C@H]5C[C@@H](O)C6)ncc4F)ccc31)N[C@@H](C1CC1)C(F)(F)CO2 [Example 5a, (S)-2-cyclopropyl-3,3-difluoro-10-((5-fluoro-2-((1R,5S,7R)-7-hydroxy-3-oxa-9-azabicyclo[3.3.1]nonan-9-yl)pyrimidin-4-yl)amino)-7-methyl-1,2,3,4-tetrahydro-[1,4]oxazepino[2,3-c]quinolin-6(7H)-one]	1.51 nM
Cn1c(=O)c2c(c3cc(Nc4ncncc4Cl)ccc31)N[C@@H](C1CC1)C(F)(F)CO2 [Example 6a, (S)-10-((5-chloropyrimidin-4-yl)amino)-2-cyclopropyl-3,3-difluoro-7-methyl-1,2,3,4-tetrahydro-[1,4]oxazepino[2,3-c]quinolin-6(7H)-one]	14.1 nM
CN(C)c1ncc(Cl)c(Nc2ccc3c(c2)c2c(c(=O)n3C)OCC(F)(F)[C@H](C3CC3)N2)n1 [Example 8a, (S)-10-((5-chloro-2-(dimethylamino)pyrimidin-4-yl)amino)-2-cyclopropyl-3,3-difluoro-7-methyl-1,2,3,4-tetrahydro-[1,4]oxazepino[2,3-c]quinolin-6(7H)-one]	10.7 nM
Cn1c(=O)c2c(c3cc(Nc4nc(N5C[C@H](O)C[C@H](F)C5)ncc4Cl)ccc31)N[C@@H](C1CC1)C(F)(F)CO2 [Example 9a-1, (S)-10-((5-chloro-2-((3S,5R)-3-fluoro-5-hydroxypiperidin-1-yl)pyrimidin-4-yl)amino)-2-cyclopropyl-3,3-difluoro-7-methyl-1,2,3,4-tetrahydro-[1,4]oxazepino[2,3-c]quinolin-6(7H)-one]	1.82 nM
Cn1c(=O)c2c(c3cc(Nc4nc(N5C[C@@H](O)C[C@@H](F)C5)ncc4Cl)ccc31)N[C@@H](C1CC1)C(F)(F)CO2 [Example 9a-2, (S)-10-((5-chloro-2-((3R,5S)-3-fluoro-5-hydroxypiperidin-1-yl)pyrimidin-4-yl)amino)-2-cyclopropyl-3,3-difluoro-7-methyl-1,2,3,4-tetrahydro-[1,4]oxazepino[2,3-c]quinolin-6(7H)-one]	2.95 nM
CN(C)C[C@@H]1CCCN(c2ncc(Cl)c(Nc3ccc4c(c3)c3c(c(=O)n4C)OCC(F)(F)[C@H](C4CC4)N3)n2)C1 [Example 9b, (S)-10-((5-chloro-2-((S)-3-((dimethylamino)methyl)piperidin-1-yl)pyrimidin-4-yl)amino)-2-cyclopropyl-3,3-difluoro-7-methyl-1,2,3,4-tetrahydro-[1,4]oxazepino[2,3-c]quinolin-6(7H)-one]	3.09 nM
CN(C)[C@H]1CCCN(c2ncc(Cl)c(Nc3ccc4c(c3)c3c(c(=O)n4C)OCC(F)(F)[C@H](C4CC4)N3)n2)C1 [Example 9h, (S)-10-((5-chloro-2-((S)-3-(dimethylamino)piperidin-1-yl)pyrimidin-4-yl)amino)-2-cyclopropyl-3,3-difluoro-7-methyl-1,2,3,4-tetrahydro-[1,4]oxazepino[2,3-c]quinolin-6(7H)-one]	3.39 nM
CN(C)[C@@H]1CCCN(c2ncc(Cl)c(Nc3ccc4c(c3)c3c(c(=O)n4C)OCC(F)(F)[C@H](C4CC4)N3)n2)C1 [Example 9i, (S)-10-((5-chloro-2-((R)-3-(dimethylamino)piperidin-1-yl)pyrimidin-4-yl)amino)-2-cyclopropyl-3,3-difluoro-7-methyl-1,2,3,4-tetrahydro-[1,4]oxazepino[2,3-c]quinolin-6(7H)-one]	2.69 nM
CC(=O)N(C)[C@@H]1CN(c2ncc(Cl)c(Nc3ccc4c(c3)c3c(c(=O)n4C)OCC(F)(F)[C@H](C4CC4)N3)n2)CCC1(F)F [Example 9m, N-((R)-1-(5-chloro-4-(((S)-2-cyclopropyl-3,3-difluoro-7-methyl-6-oxo-1,2,3,4,6,7-hexahydro-[1,4]oxazepino[2,3-c]quinolin-10-yl)amino)pyrimidin-2-yl)-4,4-difluoropiperidin-3-yl)-N-methylacetamide]	2.51 nM
CC(=O)N(C)[C@H]1CN(c2ncc(Cl)c(Nc3ccc4c(c3)c3c(c(=O)n4C)OCC(F)(F)[C@H](C4CC4)N3)n2)CCC1(F)F [Example 9n, N-((S)-1-(5-chloro-4-(((S)-2-cyclopropyl-3,3-difluoro-7-methyl-6-oxo-1,2,3,4,6,7-hexahydro-[1,4]oxazepino[2,3-c]quinolin-10-yl)amino)pyrimidin-2-yl)-4,4-difluoropiperidin-3-yl)-N-methylacetamide]	4.9 nM
Cn1c(=O)c2c(c3cc(Nc4nc(N5CCC(F)(CO)CC5)ncc4Cl)ccc31)N[C@@H](C1CC1)C(F)(F)CO2 [Example 9o, (S)-10-((5-chloro-2-(4-fluoro-4-(hydroxymethyl)piperidin-1-yl)pyrimidin-4-yl)amino)-2-cyclopropyl-3,3-difluoro-7-methyl-1,2,3,4-tetrahydro-[1,4]oxazepino[2,3-c]quinolin-6(7H)-one]	9.33 nM
Cn1c(=O)c2c(c3cc(Nc4nc(N5CCC[C@@H](CO)C5)ncc4Cl)ccc31)N[C@@H](C1CC1)C(F)(F)CO2 [Example 9p, (S)-10-((5-chloro-2-((R)-3-(hydroxymethyl)piperidin-1-yl)pyrimidin-4-yl)amino)-2-cyclopropyl-3,3-difluoro-7-methyl-1,2,3,4-tetrahydro-[1,4]oxazepino[2,3-c]quinolin-6(7H)-one]	2.88 nM
